Earlier results in patent publication EP0081783B2, “Renin inhibitory peptides having Phe 13 deletion” (Merck & Co., Inc., priority 1981, dated 1989).

Tested on: hog renin
Details: after the injection of hog renin into nephrectomized rats

pepstatin
blood pressure in vivo: reduce blood pressure
